Data as given in PubChem BioAssay AID248 (DTP/NCI, 2004).
Several values for one entry are separate records, joined by “and”; a condition that tells them apart may be missing. Equal values may be shown once. Toxic doses and inconclusive results are not listed. No stated cut-off is given here; in the data, active means T/C of 150% or more; inactive means T/C below 125%. Square brackets hold non-standard residues; d marks the D form. Peptide text beside a SMILES is read from it. * marks the point of attachment. ξ: configuration not given here. Cbz = O=C(OCc1ccccc1)*; Boc = CC(C)(C)OC(=O)*; ξM = CSCCC(N)C(=O)O

Test system: L1210 leukemia ip in BDF1 mice, survival T/C
Experiment: NCI In Vivo Anticancer Drug Screen. Data for tumor model L1210 Leukemia (intraperitoneal) in B6D2F1 (BDF1) mice
Conditions: endpoint: mean survival time, higher = longer survival
Outline: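 Transplantable tumor model; survival measured in treated vs vehicle control mice. Value = treated/control.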

[1] = dose: 100.0 mg/kg/injection, schedule: Q01DX001 (ip), vehicle: saline
[2] = dose: 200.0 mg/kg/injection, schedule: Q01DX001 (ip), vehicle: saline
[3] = dose: 400.0 mg/kg/injection, schedule: Q01DX001 (ip), vehicle: saline
[4] = dose: 100.0 mg/kg/injection, schedule: Q01DX009 (ip), vehicle: Klucel (hydroxypropylcellulose) (HPC)
[5] = dose: 100.0 mg/kg/injection, schedule: Q04DX003 (ip), vehicle: Klucel (hydroxypropylcellulose) (HPC)
[6] = dose: 200.0 mg/kg/injection, schedule: Q01DX009 (ip), vehicle: Klucel (hydroxypropylcellulose) (HPC)
[7] = dose: 200.0 mg/kg/injection, schedule: Q04DX003 (ip), vehicle: Klucel (hydroxypropylcellulose) (HPC)
[8] = dose: 400.0 mg/kg/injection, schedule: Q01DX009 (ip), vehicle: Klucel (hydroxypropylcellulose) (HPC)
[9] = dose: 50.0 mg/kg/injection, schedule: Q01DX009 (ip), vehicle: saline with Tween-80
[10] = dose: 100.0 mg/kg/injection, schedule: Q01DX009 (ip), vehicle: saline with Tween-80
[11] = dose: 200.0 mg/kg/injection, schedule: Q01DX009 (ip), vehicle: saline with Tween-80
[12] = dose: 100.0 mg/kg/injection, schedule: Q04DX003 (ip), vehicle: saline with Tween-80
[13] = dose: 200.0 mg/kg/injection, schedule: Q04DX003 (ip), vehicle: saline with Tween-80
[14] = dose: 400.0 mg/kg/injection, schedule: Q01DX009 (ip), vehicle: saline with Tween-80
[15] = dose: 400.0 mg/kg/injection, schedule: Q04DX003 (ip), vehicle: saline with Tween-80

Measured: T/C

COC1OC(CO)C2OC12 (configuration not stated)
inactive: dose: 75.0 mg/kg/injection, schedule: Q01DX009 (ip), vehicle: saline 98 % of control and 107 % of control | [1] 104 % of control | dose: 100.0 mg/kg/injection, schedule: Q04DX003 (ip), vehicle: saline 107 % of control and 100 % of control | dose: 150.0 mg/kg/injection, schedule: Q01DX009 (ip), vehicle: saline 110 % of control and 93 % of control | [2] 102 % of control and 96 % of control | dose: 200.0 mg/kg/injection, schedule: Q04DX003 (ip), vehicle: saline 98 % of control and 89 % of control | dose: 300.0 mg/kg/injection, schedule: Q01DX009 (ip), vehicle: saline 102 % of control and 100 % of control | [3] 104 % of control | dose: 400.0 mg/kg/injection, schedule: Q04DX003 (ip), vehicle: saline 100 % of control and 104 % of control

C=CCOP(=O)(OCC=C)OCC=C
inactive: dose: 50.0 mg/kg/injection, schedule: Q01DX009 (ip), vehicle: Klucel (hydroxypropylcellulose) (HPC) 97 % of control | dose: 50.0 mg/kg/injection, schedule: Q04DX003 (ip), vehicle: Klucel (hydroxypropylcellulose) (HPC) 99 % of control | [4] 97 % of control | [5] 91 % of control | [6] 98 % of control | [7] 93 % of control

Cc1cccc(NC(=S)Nc2ccccc2)c1C
inactive: dose: 100.0 mg/kg/injection, schedule: Q04DX002 (ip), vehicle: Klucel (hydroxypropylcellulose) (HPC) 94 % of control | dose: 200.0 mg/kg/injection, schedule: Q04DX002 (ip), vehicle: Klucel (hydroxypropylcellulose) (HPC) 105 % of control | dose: 400.0 mg/kg/injection, schedule: Q04DX002 (ip), vehicle: Klucel (hydroxypropylcellulose) (HPC) 101 % of control

COc1ccc(O)c(/C=N\N=C\c2cc(OC)ccc2O)c1
inactive: [4] 106 % of control | [6] 101 % of control | [8] 95 % of control

COc1ccc(C)cc1NC(=O)OCCOc1ccc(Br)cc1
inactive: [9] 90 % of control | [10] 97 % of control | [11] 87 % of control

CCCC(C(=O)O)N(C)Cc1ccccc1 (configuration not stated)
inactive: dose: 100.0 mg/kg/injection, schedule: Q01DX009 (ip), vehicle: acetone 92 % of control | dose: 200.0 mg/kg/injection, schedule: Q01DX009 (ip), vehicle: acetone 101 % of control | dose: 400.0 mg/kg/injection, schedule: Q01DX009 (ip), vehicle: acetone 97 % of control

Cc1cccc(C)c1NC(=O)C(C)C
inactive: [10] 94 % of control | [12] 98 % of control | [11] 95 % of control | [13] 98 % of control | [14] 90 % of control | [15] 96 % of control

Cc1ccc(SC(=O)CC(=O)Sc2ccc(C)cc2)cc1
inactive: [9] 91 % of control | [10] 94 % of control | [11] 97 % of control

CCCc1ccc(OCC=C(C)C)cc1
inactive: dose: 50.0 mg/kg/injection, schedule: Q04DX002 (ip), vehicle: saline with Tween-80 100 % of control | dose: 100.0 mg/kg/injection, schedule: Q04DX002 (ip), vehicle: saline with Tween-80 100 % of control

O=C1OC(C(O)C(O)C(O)CO)C(O)C1O (configuration not stated)
inactive: dose: 100.0 mg/kg/injection, schedule: Q04DX002 (ip), vehicle: saline 96 % of control | dose: 200.0 mg/kg/injection, schedule: Q04DX002 (ip), vehicle: saline 96 % of control | dose: 400.0 mg/kg/injection, schedule: Q04DX002 (ip), vehicle: saline 108 % of control

O=C(O)CCCCCCCCCCN1C(=O)CCC1=O
inactive: dose: 100.0 mg/kg/injection, schedule: Q04DX003 (ip), vehicle: carboxymethylcellulose (CMC) 98 % of control | dose: 200.0 mg/kg/injection, schedule: Q04DX003 (ip), vehicle: carboxymethylcellulose (CMC) 92 % of control | dose: 400.0 mg/kg/injection, schedule: Q04DX003 (ip), vehicle: carboxymethylcellulose (CMC) 104 % of control

CCCCCCCNC(=O)CI
inactive: [1] 103 % of control | [2] 111 % of control

COc1ccc([N+](=O)[O-])cc1NC(=O)Nc1ccc(F)c([N+](=O)[O-])c1
inactive: [4] 98 % of control | [6] 95 % of control | [8] 95 % of control

Clc1ccc2c(c1)C(N1CCOCC1)c1cc(Cl)cc(Cl)c1-2 (configuration not stated)
inactive: dose: 100.0 mg/kg/injection, schedule: Q01DX001 (ip), vehicle: Klucel (hydroxypropylcellulose) (HPC) 102 % of control | [5] 98 % of control | dose: 200.0 mg/kg/injection, schedule: Q01DX001 (ip), vehicle: Klucel (hydroxypropylcellulose) (HPC) 92 % of control | [7] 96 % of control | dose: 400.0 mg/kg/injection, schedule: Q01DX001 (ip), vehicle: Klucel (hydroxypropylcellulose) (HPC) 96 % of control | dose: 400.0 mg/kg/injection, schedule: Q04DX003 (ip), vehicle: Klucel (hydroxypropylcellulose) (HPC) 94 % of control

Nc1cccc(/C=C/C=C\c2cccc([N+](=O)[O-])c2)c1
inactive: [1] 97 % of control | [2] 94 % of control | [3] 92 % of control

C(COC1CC2CC1C1C2CC2OC21)OC1CC2CC1C1C2CC2OC21 (configuration not stated)
inactive: dose: 50.0 mg/kg/injection, schedule: Q01DX001 (ip), vehicle: carboxymethylcellulose (CMC) 96 % of control | dose: 100.0 mg/kg/injection, schedule: Q01DX001 (ip), vehicle: carboxymethylcellulose (CMC) 98 % of control | dose: 200.0 mg/kg/injection, schedule: Q01DX001 (ip), vehicle: carboxymethylcellulose (CMC) 96 % of control | dose: 400.0 mg/kg/injection, schedule: Q01DX001 (ip), vehicle: carboxymethylcellulose (CMC) 102 % of control

CNC(CO)C1CCCCC1 (configuration not stated)
inactive: dose: 75.0 mg/kg/injection, schedule: Q01DX001 (ip), vehicle: saline 100 % of control | dose: 150.0 mg/kg/injection, schedule: Q01DX001 (ip), vehicle: saline 102 % of control | dose: 300.0 mg/kg/injection, schedule: Q01DX001 (ip), vehicle: saline 101 % of control

O=C(CCNC(=O)OCc1ccccc1)NC(Cc1ccccc1)C(=O)OCc1ccccc1 (configuration not stated)
inactive: [12] 103 % of control | [13] 97 % of control | [15] 95 % of control

O=C(CN(Cc1ccccc1)Cc1ccccc1)c1ccccc1
inactive: dose: 100.0 mg/kg/injection, schedule: Q04DX003 (ip), vehicle: DMSO 103 % of control

COC(=O)C(CCSC)NC(=O)CNC(=O)CNC(=O)OCc1ccccc1 (stereo not drawn) (Cbz-Gly-Gly-[ξM]-OMe)
inactive: [12] 106 % of control | [13] 101 % of control | [15] 95 % of control

C=C(Br)CNC(=O)Nc1ccccc1
inactive: [12] 98 % of control | [13] 95 % of control | [15] 102 % of control

COC(=O)CNC(=O)C1CCCN1C(=O)C(Cc1c[nH]c2ccccc12)NC(=O)OC(C)(C)C (stereo not drawn) (Boc-Trp-Pro-Gly-OMe; configuration not given here)
inactive: [10] 88 % of control | [11] 100 % of control | [14] 100 % of control

CN(C)CCCN1c2ccccc2C(C)(C)c2ccccc21
inactive: dose: 50.0 mg/kg/injection, schedule: Q01DX001 (ip), vehicle: saline 96 % of control | [9] 104 % of control | dose: 50.0 mg/kg/injection, schedule: Q01DX009 (ip), vehicle: saline 106 % of control | [1] 96 % of control | [10] 116 % of control | dose: 100.0 mg/kg/injection, schedule: Q01DX009 (ip), vehicle: saline 118 % of control | [12] 107 % of control | [2] 104 % of control | [13] 102 % of control
